Data taken from ChEMBL document CHEMBL1148233, “Design and synthesis of macrocyclic inhibitors of phosphatase cdc25B” (Bioorg Med Chem Lett, 2004).

How the values were obtained:
[1] = biological target: Receptor-type tyrosine-protein phosphatase alpha (Homo sapiens) (UniProt P18433); assay: Selectivity against protein tyrosine phosphatase alpha
[2] = biological target: T1, M-phase inducer phosphatase 2 (Homo sapiens, UniProt P30305); assay: Inhibitory concentration to human cell division cycle 25B (Cdc25B)
T1 sequence (P30305 whole entry): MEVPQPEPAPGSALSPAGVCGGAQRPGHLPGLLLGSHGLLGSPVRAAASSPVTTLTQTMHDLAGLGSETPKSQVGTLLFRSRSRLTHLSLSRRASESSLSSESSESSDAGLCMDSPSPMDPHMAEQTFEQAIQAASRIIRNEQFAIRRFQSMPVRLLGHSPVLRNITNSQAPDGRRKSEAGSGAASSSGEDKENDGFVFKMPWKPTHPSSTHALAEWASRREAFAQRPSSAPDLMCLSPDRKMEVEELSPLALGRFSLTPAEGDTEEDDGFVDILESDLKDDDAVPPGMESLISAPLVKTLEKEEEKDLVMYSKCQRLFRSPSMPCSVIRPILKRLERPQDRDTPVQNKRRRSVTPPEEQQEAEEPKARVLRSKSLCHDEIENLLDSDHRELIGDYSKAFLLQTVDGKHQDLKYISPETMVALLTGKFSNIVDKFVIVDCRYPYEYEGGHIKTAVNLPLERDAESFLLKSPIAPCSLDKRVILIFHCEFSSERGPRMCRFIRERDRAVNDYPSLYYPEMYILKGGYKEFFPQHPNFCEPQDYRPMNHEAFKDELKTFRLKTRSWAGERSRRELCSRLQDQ

[3] = biological target: T2, Tyrosine-protein phosphatase non-receptor type 1 (Homo sapiens) (UniProt P18031); assay: Selectivity against protein tyrosine phosphatase 1B
T2 sequence (whole entry): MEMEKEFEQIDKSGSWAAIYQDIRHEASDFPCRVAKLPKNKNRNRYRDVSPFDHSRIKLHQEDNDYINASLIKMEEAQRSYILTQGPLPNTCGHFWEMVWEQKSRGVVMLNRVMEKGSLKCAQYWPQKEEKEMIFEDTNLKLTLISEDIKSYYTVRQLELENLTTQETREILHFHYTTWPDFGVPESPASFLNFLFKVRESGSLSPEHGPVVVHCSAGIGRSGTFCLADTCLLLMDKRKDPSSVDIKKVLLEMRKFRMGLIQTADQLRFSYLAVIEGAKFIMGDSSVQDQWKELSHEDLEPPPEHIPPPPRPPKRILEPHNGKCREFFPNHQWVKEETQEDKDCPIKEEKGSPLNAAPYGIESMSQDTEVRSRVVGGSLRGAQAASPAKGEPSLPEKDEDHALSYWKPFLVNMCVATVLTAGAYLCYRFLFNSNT

[4] = biological target: Serine/threonine-protein phosphatase 2A catalytic subunit alpha isoform (Bos taurus) (UniProt P67774); assay: Selectivity against protein phosphatase 2A
Serine/threonine-protein phosphatase 2A catalytic subunit alpha isoform (Bos taurus), sequence (P67774 whole entry, canonical isoform): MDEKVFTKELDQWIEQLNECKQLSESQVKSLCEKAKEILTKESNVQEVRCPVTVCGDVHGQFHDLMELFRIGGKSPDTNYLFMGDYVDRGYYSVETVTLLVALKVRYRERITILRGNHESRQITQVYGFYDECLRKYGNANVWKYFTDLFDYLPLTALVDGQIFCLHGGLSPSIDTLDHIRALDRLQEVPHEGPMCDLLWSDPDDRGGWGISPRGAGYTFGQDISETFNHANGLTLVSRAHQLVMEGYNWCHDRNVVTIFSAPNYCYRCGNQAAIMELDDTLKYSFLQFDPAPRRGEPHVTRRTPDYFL

Receptor-type tyrosine-protein phosphatase alpha (Homo sapiens), sequence (P18433 20-802 limits assumed): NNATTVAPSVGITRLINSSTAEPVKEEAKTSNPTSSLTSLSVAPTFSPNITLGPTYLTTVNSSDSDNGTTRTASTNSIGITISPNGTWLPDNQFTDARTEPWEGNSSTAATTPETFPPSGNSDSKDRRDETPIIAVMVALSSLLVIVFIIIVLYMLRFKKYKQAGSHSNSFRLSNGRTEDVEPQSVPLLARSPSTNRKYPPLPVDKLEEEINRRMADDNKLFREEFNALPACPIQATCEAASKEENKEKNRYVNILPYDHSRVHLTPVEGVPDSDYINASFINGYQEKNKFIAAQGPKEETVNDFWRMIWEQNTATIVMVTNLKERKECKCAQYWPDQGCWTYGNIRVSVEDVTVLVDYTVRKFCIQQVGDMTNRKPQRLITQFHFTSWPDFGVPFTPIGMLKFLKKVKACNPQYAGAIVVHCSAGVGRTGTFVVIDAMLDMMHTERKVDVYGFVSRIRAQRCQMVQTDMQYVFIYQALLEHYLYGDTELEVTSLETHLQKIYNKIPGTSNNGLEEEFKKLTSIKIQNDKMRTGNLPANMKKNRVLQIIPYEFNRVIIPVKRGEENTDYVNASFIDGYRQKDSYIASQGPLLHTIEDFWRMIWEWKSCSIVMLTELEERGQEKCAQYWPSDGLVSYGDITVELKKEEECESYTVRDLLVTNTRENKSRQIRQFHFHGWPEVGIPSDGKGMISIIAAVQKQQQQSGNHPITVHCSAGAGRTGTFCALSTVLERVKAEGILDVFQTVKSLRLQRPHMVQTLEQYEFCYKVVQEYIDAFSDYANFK

SMILES	Selectivity [1] [µM]	IC50 [2] [µM]	Selectivity [3] [µM]	Selectivity [4] [µM]
CC(=O)CC(=O)O[C@H]1CC/C(C)=C\CC[C@]2(C)[C@@H]([C@H](C)CCCC(C)C)CC[C@H]2c2ccc(cc2C(=O)O)C1	> 30	7.5	> 30	> 30
CC(=O)O[C@@]1(C)CC/C(C)=C\CC[C@]2(C)[C@@H]([C@H](C)CCCC(C)C)CC[C@H]2c2ccc(cc2C(C)O)C1 (some centres undefined)	> 30	> 30	> 30	> 30
C/C1=C/CC[C@]2(C)[C@@H]([C@H](C)CCCC(C)C)CC[C@H]2c2ccc(cc2C=O)C[C@H](Oc2ccccc2)CC1	> 30	3.5	> 30	> 30
CC(=O)c1cc2ccc1[C@@H]1CC[C@H]([C@H](C)CCCC(C)C)[C@@]1(C)CC/C=C(/C)CC[C@](C)(O)C2	> 30	> 30	> 30	> 30
CC(C)CCC[C@@H](C)[C@H]1CC[C@H]2c3ccc(cc3C(=O)O)CC(O)CCC(C)CCC[C@]12C (some centres undefined)	> 30	4.9	> 30	> 30
C/C1=C/CC[C@]2(C)[C@@H]([C@H](C)CCCC(C)C)CC[C@H]2c2ccc(cc2C(C)O)C[C@@](C)(O)CC1 (some centres undefined)	> 30	> 30	> 30	> 30
C/C1=C/CC[C@]2(C)[C@@H]([C@H](C)CCCC(C)C)CC[C@H]2c2ccc(cc2C(=O)O)CC(=O)CC1	> 30	8.5	> 30	> 30
CC(=O)O[C@@]1(C)CCC(C)CCC[C@]2(C)[C@@H]([C@H](C)CCCC(C)C)CC[C@H]2c2ccc(cc2C)C1 (some centres undefined)	> 30	11	> 30	> 30
C/C1=C/CC[C@]2(C)[C@@H]([C@H](C)CCCC(C)C)CC[C@H]2c2ccc(cc2C(=O)O)C[C@H](Oc2ccccc2)CC1	> 30	7.1	> 30	> 30
COC(=O)c1cc2ccc1[C@@H]1CC[C@H]([C@H](C)CCCC(C)C)[C@@]1(C)CC/C=C(/C)CCC(=O)C2	> 30	> 30	> 30	> 30
COC(=O)c1cc2ccc1[C@@H]1CC[C@H]([C@H](C)CCCC(C)C)[C@@]1(C)CC/C=C(/C)CC[C@H](OC(C)=O)C2	> 30	> 30	> 30	> 30
CC(=O)O[C@H]1CCC(C)CCC[C@]2(C)[C@@H]([C@H](C)CCCC(C)C)CC[C@H]2c2ccc(cc2C(=O)O)C1 (some centres undefined)	> 30	7.8	> 30	> 30
C/C1=C/CC[C@]2(C)[C@@H]([C@H](C)CCCC(C)C)CC[C@H]2c2ccc(cc2C(=O)O)CC(O)CC1 (some centres undefined)	> 30	7.9	> 30	> 30
CC(=O)O[C@H]1CC/C(C)=C\CC[C@]2(C)[C@@H]([C@H](C)CCCC(C)C)CC[C@H]2c2ccc(cc2C(=O)O)C1	> 30	5.6	> 30	> 30
COCc1cc2ccc1[C@@H]1CC[C@H]([C@H](C)CCCC(C)C)[C@@]1(C)CC/C=C(/C)CC[C@](C)(OC(C)=O)C2	> 30	29	> 30	> 30
COC(=O)C(=O)O[C@H]1CC/C(C)=C\CC[C@]2(C)[C@@H]([C@H](C)CCCC(C)C)CC[C@H]2c2ccc(cc2C(=O)O)C1	> 30	11	> 30	> 30
C/C1=C/CC[C@]2(C)[C@@H]([C@H](C)COC(=O)c3ccccc3)CC[C@H]2c2ccc(cc2C(=O)O)C[C@@H](O)CC1	–	6.5	–	–
CC(=O)O[C@@]1(C)CC/C(C)=C\CC[C@]2(C)[C@@H]([C@H](C)CCCC(C)C)CC[C@H]2c2ccc(cc2C(C)=O)C1	> 30	> 30	> 30	> 30
CC(=O)O[C@H]1CC[C@](C)(C2CC[C@@]3(C)C(CC[C@@H]3[C@H](C)CCCC(C)C)[C@@H]2CC(=O)O)C(=O)O1 (some centres undefined)	–	8.7	–	–
Cc1cc2ccc1[C@@H]1CC[C@H]([C@H](C)CCCC(C)C)[C@@]1(C)CCCC(C)CC[C@](C)(O)C2 (some centres undefined)	> 30	> 30	> 30	> 30
C/C1=C/CC[C@]2(C)[C@@H]([C@H](C)CCCC(C)C)CC[C@H]2c2ccc(cc2C=O)C[C@@H](O)CC1	> 30	11	> 30	> 30

Further lines, results first:

Selectivity [1] [µM]	IC50 [2] [µM]	Selectivity [3] [µM]	Selectivity [4] [µM]	SMILES
> 30	9.3	> 30	> 30	C=CC[C@]1(O)CC/C(C)=C\CC[C@]2(C)[C@@H]([C@H](C)CCCC(C)C)CC[C@H]2c2ccc(cc2C(=O)O)C1
> 30	4.9	> 30	> 30	CC(=O)O[C@H]1CC/C(C)=C\CC[C@]2(C)[C@@H]([C@H](C)CCCC(C)C)CC[C@H]2c2ccc(cc2C=O)C1
> 30	> 30	> 30	> 30	CC(=O)O[C@H]1CC/C(C)=C\CC[C@]2(C)[C@@H]([C@H](C)CCCC(C)C)CC[C@H]2c2ccc(cc2CO)C1
> 30	3.4	> 30	25	CC(C)CCC[C@@H](C)[C@H]1CC[C@H]2c3ccc(cc3C(=O)O)CC(=O)CCC(C)CCC[C@]12C (some centres undefined)
> 30	> 30	> 30	> 30	CC(C)CCC[C@@H](C)[C@H]1CC[C@H]2c3ccc(cc3CO)C[C@@H](O)CCC(C)CCC[C@]12C (some centres undefined)
> 30	> 30	> 30	> 30	C/C1=C/CC[C@]2(C)[C@@H]([C@H](C)CCCC(C)C)CC[C@H]2c2ccc(cc2CO)C[C@@H](O)CC1
> 30	> 30	> 30	> 30	COC(=O)c1cc2ccc1[C@@H]1CC[C@H]([C@H](C)CCCC(C)C)[C@@]1(C)CC/C=C(/C)CC[C@H](O)C2
> 30	> 30	> 30	> 30	CC(=O)O[C@@]1(C)CCC(C)CCC[C@]2(C)[C@@H]([C@H](C)CCCC(C)C)CC[C@H]2c2ccc(cc2CN2CCOCC2)C1 (some centres undefined)
> 30	8.4	> 30	> 30	C=CC[C@@]1(O)CC/C(C)=C\CC[C@]2(C)[C@@H]([C@H](C)CCCC(C)C)CC[C@H]2c2ccc(cc2C(=O)O)C1
